Laboratory results reported in paper PMC7999366, “Alkyl-Resorcinol Derivatives as Inhibitors of GDP-Mannose Pyrophosphorylase with Antileishmanial Activities” (Molecules, 2021).
Read-outs that look alike come from different tables or passages of the source.

Columns and labels:
LiGDP-MP = LiGDP-MP (Leishmania infantum, UniProt A4I048); assay: Enzyme inhibition assay on purified recombinant LiGDP-MP (malachite green); format: biochemical
Text: (§1) Recombinant His6 tagged GDP-MP from L. infantum (LiGDP-MP) was produced in E. coli and purified using Ni-nitrilotriacetic acid (Ni-NTA) and size exclusion chromatography Hiload^TM16/60 Superdex^TM 200 column as previously described for LdGDP-MP [12]. Recombinant His-tagged GDP-MP from human (hGDP-MP) was produced in E. coli and purified using a Mono-Q anion exchange column followed by a Hiload^TM 16/60 Superdex^TM 200 column as previously described.
(§2) Enzyme activities of both LiGDP-MP and hGDP-MP were measured at 37 °C for 20 min in 384 well plates in a 20-µL reaction containing 50 mM Tris-HCl pH 7.5, 5 mM MgCl2, 100 µM Mannose-1-phosphate, 100 µM GTP, 1 mM DTT, 0.1 U/mL inorganic pyrophosphatase (Sigma-Aldrich, Saint-Quentin-Fallavier, France) and 2 ng/µL of recombinant GDP-MP [12, 29]. The reaction was initiated by the addition of GDP-MP, and was stopped after adding 20 µL of revelation buffer containing malachite green (0.03% w/v), ammonium molybdate (0.2% w/v) and Triton X-100 (0.05% v/v) in HCl (0.7 M) for 5 min at 37 °C. The quantity of inorganic phosphate generated, representing GDP-MP activity, was determined by measuring OD650nm with a spectrometer plate reader Polar Omega (BMG LabTech, Champigny-sur-Marne, France).
(§3) To evaluate compounds on purified GDP-MPs, enzyme activities were measured as described above in the presence of 100 µg/mL of natural products originating from a chemical library from ICSN (Institut de Chimie des Substances Naturelles, Gif-sur-Yvette). The inhibitors were added in the reaction mix, before the addition of GDP-MP. The percentage of inhibition was then calculated in reference to untreated enzyme. The statistical parameter (Z-factor) was calculated to validate the quality of the HTS assays as described previously. As a control, compounds were evaluated in parallel in the same conditions on inorganic pyrophosphatase alone in order to discard false-positives. […] The IC50 were determined by nonlinear regression using GraphPad Prism 7.0 and further converted in µM in order to normalize units in Table 1. Enzyme inhibition assays were performed in triplicate in three independent experiments.

[1] = tested on: L. infantum axenic amastigotes; assay: In vitro antileishmanial evaluation on axenic amastigotes (resazurin); format: cell-based, Leishmania infantum; conditions: 72 h incubation, read-out: L. infantum Axenic Amastigotes IC50 (µM) ± SD
Procedure: Promastigotes of Leishmania infantum (MHOM/FR/2008/LEM5700) were cultured in the dark at 26 °C with 5% CO2 in M199 complete medium containing M199 medium supplemented with adenosine (100 µM), hemin (0.5 mg/L), Hepes (40 mM) pH 7.4, and heat inactivated foetal bovine serum (10%; HIFBS). Cultures of axenic amastigotes of L. infantum were adapted from. Briefly, axenic amastigotes of L. infantum were obtained from late log promastigotes diluted at 1 × 10^6/mL in M199 complete medium acidified at pH 5.5 and cultured at 37 °C with 5% CO2.
The evaluations of activity on axenic amastigotes were adapted from the protocols previously described. Briefly, two-fold serial dilutions of the compounds, from 100 µM to 0.049 µM, were performed in 100 µL of complete medium (see above) in 96-well microplates. Axenic amastigotes were then added to each well at a density of 10^6/mL in a 200 µL final volume. After 72 h of incubation at 37 °C with 5% CO2, 20 µL of resazurin (450 µM) was added to each well and further incubated in the dark for 24 h at 37 °C with 5% CO2. Cell viability was then monitored as described above. The activity of the compounds was expressed as IC50, which was determined by nonlinear regression using GraphPad Prism 7.0.

[2] = tested on: L. infantum intramacrophage amastigotes; assay: In vitro antileishmanial evaluation on intramacrophage amastigotes (Giemsa counting in RAW 264.7); format: cell-based, Leishmania infantum; conditions: for IC50: Leishmania infantum, RAW264.7, RAW 264.7 macrophages, 48 h treatment, read-out: L. infantum Intramacrophage Amastigotes IC50 (µM) ± SD; for Selectivity Index: CC50/IC50 on intramacrophage amastigotes
Procedure: Concerning the evaluation on intramacrophage amastigotes, the determination of the cytotoxicity as presented above was necessary to use the highest drug concentrations to be studied on the intramacrophage amastigote model. RAW 264.7 macrophages were plated in 16-well Lab-Tek chamber slides (Thermo-FisherVillebon-sur-Yvette, France) at a density of 2 × 10^4 cells per well and incubated for 24 h at 37 °C with 5% CO2. […] After 24 h of infection at 37 °C with 5% CO2, extracellular parasites were removed, and DMEM complete medium (100 µL) containing two-fold serial dilutions of the compounds, from 100 µM to 0.049 µM, was added to each well. A positive control treated with 1% DMSO was added to each Lab-tek chamber-slide. After 48 h of treatment, the medium was removed and cells were fixed in methanol for 1 min, stained in 10% Giemsa (Merck) for 5 min, and further rinsed in water before observation in phase contrast at the microscope (Olympus CX31; Olympus, Rungis, France). The number of amastigotes was counted by two independent experimenters for a total of 300 macrophages per well and the ratio of amastigotes per macrophage was determined for each condition. This ratio was further compared with the one of the positive control, considered as 100%, to determine a percentage of inhibition (% I), as follows: % I = 100 − ((ratio of amastigotes per macrophage in treated cells/ratio of amastigotes per macrophages in untreated cells) × 100). The activity of the compounds was expressed as IC50, which was determined by nonlinear regression using GraphPad Prism 7.0. […] In vitro antileishmanial evaluations were performed in triplicate in three independent experiments.

hGDP-MP = target: T1, hGDP-MP (Homo sapiens, UniProt Q9Y5P6); assay: Enzyme inhibition assay on purified recombinant hGDP-MP (malachite green); format: biochemical; conditions: 37 °C, 20 min, read-out: hGDP-MP IC50 (µM) ± SD
T1 construct: His; made in house; host or cells: E. coli
Text: as §1, §2, §3

[3] = In vitro cytotoxicity on RAW 264.7 macrophages (resazurin); format: cell-based; conditions: mouse, 48 h incubation, read-out: Cytotoxicity on RAW 264.7 CC50 (µM) ± SD
Procedure: The RAW 264.7 macrophages (ATCC) were cultured at 37 °C with 5% CO2 in DMEM complete medium containing Dulbecco′s Modified Eagle′s Medium (DMEM, Invitrogen, Thermo-Fisher, Villebon-sur-Yvette, France) supplemented with penicillin-streptomycin (100 U/mL; Invitrogen), and heat-inactivated fetal bovine serum (10%; HIFBS).
Cytotoxicity was evaluated on RAW 264.7 macrophages. Cells were plated in 96-well microplates at a density of 2 × 10^4 cells per well. After an incubation of 24 h at 37 °C with 5% CO2, the medium was removed in each well, and 100 µL of DMEM complete medium containing two-fold serial dilutions of the compounds, from 100 µM to 0.049 µM, was added to each well. After 48 h of incubation at 37 °C with 5% CO2, 10 µL of resazurin (450 µM) was added to each well, and further incubated in the dark for 4 h at 37 °C with 5% CO2. In living cells, resazurin is reduced in resorufin, and this conversion is monitored by measuring OD570nm (resorufin) and OD600nm (resazurin; multimode microplate reader Spark®, Tecan, Lyon, France). […] In vitro cytotoxicity assays were performed in triplicate in three independent experiments.

[4] = purified recombinant enzyme, 37 °C, 20 min, read-out: LiGDP-MP IC50 (µM) ± SD

LiGDP-MP, sequence (A4I048 entry or part of it): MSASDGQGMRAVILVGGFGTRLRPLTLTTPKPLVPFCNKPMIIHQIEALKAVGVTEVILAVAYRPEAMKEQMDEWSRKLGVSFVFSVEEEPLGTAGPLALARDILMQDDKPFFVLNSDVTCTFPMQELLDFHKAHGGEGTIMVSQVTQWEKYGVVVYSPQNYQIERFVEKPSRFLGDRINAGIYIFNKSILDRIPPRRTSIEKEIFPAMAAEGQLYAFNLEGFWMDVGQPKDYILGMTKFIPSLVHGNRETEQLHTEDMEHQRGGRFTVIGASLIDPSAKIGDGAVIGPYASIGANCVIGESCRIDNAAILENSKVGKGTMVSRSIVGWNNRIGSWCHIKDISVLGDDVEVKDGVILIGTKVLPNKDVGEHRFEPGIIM
T1 sequence (Q9Y5P6 whole entry): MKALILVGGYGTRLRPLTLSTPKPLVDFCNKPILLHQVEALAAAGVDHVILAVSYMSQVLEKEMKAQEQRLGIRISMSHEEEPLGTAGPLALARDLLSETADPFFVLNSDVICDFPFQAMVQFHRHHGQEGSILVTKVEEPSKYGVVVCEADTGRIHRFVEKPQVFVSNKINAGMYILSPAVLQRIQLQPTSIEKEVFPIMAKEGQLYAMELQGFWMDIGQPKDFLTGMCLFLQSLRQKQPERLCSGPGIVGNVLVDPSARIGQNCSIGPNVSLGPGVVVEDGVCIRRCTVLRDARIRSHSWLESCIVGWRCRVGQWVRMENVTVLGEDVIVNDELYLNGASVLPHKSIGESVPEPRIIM

SMILES | IC50 (LiGDP-MP) | activity on leishmanial GDP-MP (in words) (LiGDP-MP; purified enzyme) | IC50 ([1]; Leishmania infantum, 72 h) | IC50 [2] | IC50 (hGDP-MP) | IC50 [1] | Selectivity Index [2] | CC50 at 48 h [3] | IC50 (LiGDP-MP; [4])
CCCCCCCCCCCCCCCCOP(=O)([O-])OCC[N+](C)(C)C [Miltefosine, hexadecylphosphocholine, reference compound] | > 250 µM | did not show any activity | 1 ± 0.3 µM | 6.7 ± 1.7 µM |  |  |  |  | 
COc1cc(O)cc(CCCCCCC/C=C\CCCCCCCc2cc(O)cc(O)c2)c1 [compound 1, (8′Z)-1-hydroxy-3-methoxy-5-[16′-(3′′,5′′-dihydroxy-phenyl)-8′-hexadecen-1′-yl]benzene] |  |  | > 50 µM | > 50 µM | 1.3 ± 0.2 µM | 78.9 ± 3.1 µM | <0.7 | 34.4 ± 1.5 µM | 
COc1cc(O)cc(CCCCCCCCCCCCCCCCc2cc(O)cc(O)c2)c1 [compound 2, 1-hydroxy-3-methoxy-5-[16′-(3′′,5′′-dihydroxyphenyl)-hexadecanyl]benzene] |  |  |  |  | 13.7 ± 14.2 µM |  |  |  | 5.9 ± 3.5 µM
COc1cc(O)cc(CCCCCCCCC/C=C\CCCCCCCc2cc(O)cc(O)c2)c1 [compound 3, (10′Z)-1-hydroxy-3-methoxy-5-[18′-(3′′,5′′-dihydroxy-phenyl)-10′-octodecen-1′-yl]benzene] |  |  | > 25 µM | > 25 µM | 1.9 ± 0.4 µM | 49.5 ± 4.2 µM | <1.2 | 31.8 ± 1.6 µM | 2.3 µM
CCCC/C=C\CCCCCc1cccc(O)c1C(=O)O [compound 4, Khookerianic acid B] |  |  | > 100 µM | > 100 µM | 79.9 ± 5.9 µM |  | <0.8 | 83.1 ± 7 µM | 120 ± 27.5 µM
CCCCCCCCCCCc1cccc(O)c1C(=O)O [compound 5, anagigantic acid] |  |  | > 100 µM | > 100 µM | 38.3 ± 4.1 µM |  |  | > 100 µM | 50.6 ± 4.8 µM
CCCC/C=C\CCCCCCCc1cccc(O)c1C(=O)O [compound 6, (Z)-2-hydroxy-6-(tridec-8-en-1-yl)benzoic acid] |  |  | > 100 µM | 42.7 ± 1.3 µM | 122 ± 26.1 µM |  | >2.3 | > 100 µM | 100 ± 16.6 µM
CCCCCCCCCCCCCc1cccc(O)c1C(=O)O [compound 7, 2-hydroxy-6-tridecylbenzoic acid] |  |  | > 100 µM | > 100 µM | 29 ± 2.5 µM |  |  | > 100 µM | 16.9 ± 5 µM
